Laboratory results from the NIST ThermoML archive (doi:10.1021/je800439e).

Experiment: xn = mol fraction of the nth substance listed
Settings: 101 kPa, Liquid

Cc1c(C)c2c(c(C)c1O)CCC(C)(CCCC(C)CCCC(C)CCCC(C)C)O2 (stereo not drawn) [dl-α-tocopherol] + CCCCCc1ccc(C2CCC(CCC)CC2)cc1
x1 = 1
Settings	viscosity [mPa·s]
278.15 K	37128
284.15 K	15242
290.15 K	6380
296.15 K	3017.5
302.15 K	1531
308.15 K	814.81
314.15 K	454.58
320.15 K	283.56
325.15 K	187.51
330.15 K	129.2
335.15 K	92.65
340.15 K	67.32
345.15 K	49.98
350.15 K	37.4

CCCCCc1ccc(C2CCC(CCC)CC2)cc1 (centres undefined) [1-pentyl-4-(4-propylcyclohexyl)-benzene] + Cc1c(C)c2c(c(C)c1O)CCC(C)(CCCC(C)CCCC(C)CCCC(C)C)O2
viscosity [mPa·s]
Settings	x2 = 0	x2 = 0.2058	x2 = 0.4023	x2 = 0.6026	x2 = 0.8018
278.15 K	27.74	75.95	384.28	1270.6	7471.9
284.15 K	21.48	53.48	231.6	794.38	3488.2
290.15 K	16.95	38.25	145.52	441.94	1669.9
296.15 K	13.5	28.1	96.37	266.41	911.16
302.15 K	11.09	21.57	65.92	163.27	485.33
308.15 K	9.21	16.8	46.14	106.33	278.53
314.15 K	7.64	13.17	33.91	71.05	173.09
320.15 K	6.58	10.98	26.01	51.66	120.77
325.15 K	6.01	9.33	20.65	39.36	82.86
330.15 K	5.19	7.98	16.86	30.2	61.04
335.15 K	4.57	6.85	14.03	24.08	46.15
340.15 K	4.13	6.04	11.75	19.47	35.24
345.15 K	3.68	5.37	9.97	16.1	27.32
350.15 K	3.29	4.7	8.55	13.3	22.24
